Test results: ChEMBL document CHEMBL3779884, “Anti-Staphylococcal Biofilm Effects of Human Cathelicidin Peptides” (ACS Med Chem Lett, 2016)
Activity calls are given as the source filed them. Where a SMILES comes first, the peptide text is derived from it. [ ]: non-standard residue; d: D form. Bip = N[C@@H](Cc1ccc(-c2ccccc2)cc1)C(=O)O

Key:
Staphylococcus aureus [1] = assay: Antibiofilm activity against Staphylococcus aureus clinical isolate USA300 assessed as disruption of 72 hr-preformed biofilm at 6.2 uM incubated for 24 hrs by XTT assay in presence of 1.6 uM vancomycin; format: functional, organism-based
Staphylococcus aureus [2] = assay: Antibiofilm activity against Staphylococcus aureus clinical isolate USA300 assessed as dead cells at 3.1 to 25 uM incubated for 24 hrs by SYTO 9/propidium iodide staining based confocal laser scanning microscopy; format: functional, organism-based
Staphylococcus aureus [3] = assay: Antibiofilm activity against Staphylococcus aureus clinical isolate USA300 assessed as disruption of 72 hr-preformed biofilm at 6.2 uM incubated for 24 hrs by XTT assay in presence of 1.6 uM daptomycin; format: functional, organism-based
Staphylococcus aureus [4] = assay: Antibacterial activity against Staphylococcus aureus clinical isolate UAMS-1 incubated for 20 hrs by microplate reader analysis; format: functional; conditions: isolate UAMS-1, 20 h
[5] = Hemolytic activity against human RBC after 1 hr by microplate reader analysis; format: ADME, cell-based, Erythrocyte; conditions: red blood cells
Staphylococcus aureus [6] = assay: Antibiofilm activity against Staphylococcus aureus clinical isolate USA200 assessed as 24 hr preformed biofilm disruption at 3.1 to 25 uM incubated for 24 hrs by XTT assay; format: functional, organism-based
Staphylococcus aureus [7] = assay: Antibiofilm activity against Staphylococcus aureus clinical isolate USA300 assessed as inhibition of bacterial attachment at 25 uM incubated for 1 hr by XTT/PMS assay; format: functional, organism-based
Staphylococcus aureus [8] = assay: Antibiofilm activity against Staphylococcus aureus clinical isolate USA300 assessed as 24 hr preformed biofilm disruption at 3.1 to 25 uM incubated for 24 hrs by XTT assay; format: functional, organism-based
Staphylococcus aureus [9] = assay: Antibiofilm activity against Staphylococcus aureus Newman assessed as 24 hr preformed biofilm disruption at 3.1 to 25 uM incubated for 24 hrs by XTT assay; format: functional, organism-based
Staphylococcus aureus [10] = assay: Antibacterial activity against Staphylococcus aureus clinical isolate USA200 incubated for 20 hrs by microplate reader analysis; format: functional; conditions: isolate USA200, 20 h
Staphylococcus aureus [11] = assay: Antibacterial activity against Staphylococcus aureus clinical isolate USA400 incubated for 20 hrs by microplate reader analysis; format: functional; conditions: isolate USA400, 20 h
Staphylococcus aureus [12] = assay: Antibacterial activity against Staphylococcus aureus Mu50 incubated for 20 hrs by microplate reader analysis; format: functional; conditions: Mu50, 20 h
Staphylococcus aureus [13] = assay: Antibacterial activity against Staphylococcus aureus clinical isolate USA300 incubated for 20 hrs by microplate reader analysis; format: functional; conditions: isolate USA300, 20 h
Staphylococcus aureus [14] = assay: Antibiofilm activity against Staphylococcus aureus clinical isolate USA400 assessed as 24 hr preformed biofilm disruption at 3.1 to 25 uM incubated for 24 hrs by XTT assay; format: functional, organism-based
Staphylococcus aureus [15] = assay: Antibiofilm activity against Staphylococcus aureus clinical isolate UAMS-1 assessed as 24 hr preformed biofilm disruption at 3.1 to 25 uM incubated for 24 hrs by XTT assay; format: functional, organism-based
Staphylococcus aureus [16] = assay: Inhibition of biofilm formation in Staphylococcus aureus clinical isolate USA300 at 3.1 to 25 uM incubated for 24 hrs by XTT/PMS assay; format: functional, organism-based
Staphylococcus aureus [17] = assay: Antibacterial activity against Staphylococcus aureus Newman incubated for 20 hrs by microplate reader analysis; format: functional
HaCaT = assay: Cytotoxic activity against human HaCaT cells assessed as reduction in cell viability at 20 to 100 uM incubated for 1 hr by MTS assay; format: cell-based
Staphylococcus aureus [18] = assay: Antibiofilm activity against Staphylococcus aureus Mu50 assessed as 24 hr preformed biofilm disruption at 3.1 to 25 uM incubated for 24 hrs by XTT assay; format: functional, organism-based
Staphylococcus aureus [19] = assay: Antibiofilm activity against Staphylococcus aureus Newman assessed as 24 hr preformed biofilm disruption at 12.5 to 25 uM incubated for 24 hrs by XTT assay; format: functional, organism-based
Staphylococcus aureus [20] = assay: Antibiofilm activity against Staphylococcus aureus clinical isolate UAMS-1 assessed as 24 hr preformed biofilm disruption at 12.5 to 25 uM incubated for 24 hrs by XTT assay; format: functional, organism-based
Staphylococcus aureus [21] = assay: Antibiofilm activity against Staphylococcus aureus harboring […] mutant assessed as inhibition of bacterial attachment at 3.1 to 25 uM incubated for 24 hrs by XTT/PMS assay; format: functional, organism-based
Staphylococcus aureus [22] = assay: Antibiofilm activity against Staphylococcus aureus clinical isolate USA200 assessed as 24 hr preformed biofilm disruption at 12.5 to 25 uM incubated for 24 hrs by XTT assay; format: functional, organism-based
Staphylococcus aureus [23] = assay: Antibiofilm activity against Staphylococcus aureus JE2 assessed as inhibition of bacterial attachment at 3.1 to 25 uM incubated for 24 hrs by XTT/PMS assay; format: functional, organism-based
Staphylococcus aureus [24] = assay: Antibiofilm activity against Staphylococcus aureus JE2 assessed as 24 hr preformed biofilm disruption at 3.1 to 25 uM incubated for 24 hrs by XTT assay; format: functional, organism-based
Staphylococcus aureus [25] = assay: Antibiofilm activity against Staphylococcus aureus clinical isolate USA400 assessed as 24 hr preformed biofilm disruption at 12.5 to 25 uM incubated for 24 hrs by XTT assay; format: functional, organism-based
Staphylococcus aureus [26] = assay: Antibiofilm activity against Staphylococcus aureus harboring […] mutant assessed as 24 hr preformed biofilm disruption at 3.1 to 25 uM incubated for 24 hrs by XTT assay; format: functional, organism-based
Staphylococcus aureus [27] = assay: Antibiofilm activity against Staphylococcus aureus Mu50 assessed as 24 hr preformed biofilm disruption at 12.5 to 25 uM incubated for 24 hrs by XTT assay; format: functional, organism-based
Staphylococcus aureus [28] = assay: Antibiofilm activity against Staphylococcus aureus harboring fnbA mutant assessed as inhibition of bacterial attachment at 3.1 to 25 uM incubated for 24 hrs by XTT/PMS assay; format: functional, organism-based
Staphylococcus aureus [29] = assay: Antibiofilm activity against Staphylococcus aureus harboring sasC mutant assessed as 24 hr preformed biofilm disruption at 3.1 to 25 uM incubated for 24 hrs by XTT assay; format: functional, organism-based
Staphylococcus aureus [30] = assay: Antibiofilm activity against Staphylococcus aureus harboring sasC mutant assessed as inhibition of bacterial attachment at 3.1 to 25 uM incubated for 24 hrs by XTT/PMS assay; format: functional, organism-based
Staphylococcus aureus [31] = assay: Antibiofilm activity against Staphylococcus aureus harboring fnbA mutant assessed as 24 hr preformed biofilm disruption at 3.1 to 25 uM incubated for 24 hrs by XTT assay; format: functional, organism-based
Staphylococcus aureus [32] = assay: Antibiofilm activity against Staphylococcus aureus clinical isolate USA300 assessed as 24 hr preformed biofilm disruption at 12.5 to 25 uM incubated for 24 hrs by XTT assay; format: functional, organism-based
Staphylococcus aureus [33] = assay: Antibiofilm activity against Staphylococcus aureus clinical isolate USA300 assessed as inhibition of bacterial attachment at 3.1 to 25 uM incubated for 1 hr by XTT/PMS assay; format: functional, organism-based
Staphylococcus aureus [34] = assay: Inhibition of biofilm formation in Staphylococcus aureus clinical isolate USA300 at 6.2 to 25 uM incubated for 24 hrs by XTT/PMS assay; format: functional, organism-based
Staphylococcus aureus [35] = assay: Inhibition of biofilm formation in Staphylococcus aureus clinical isolate USA300 at 3.1 uM incubated for 24 hrs by XTT/PMS assay relative to control; format: functional; conditions: isolate USA300, 24 h

CC[C@H](C)[C@H](NC(=O)[C@H](CCCNC(=N)N)NC(=O)[C@H](CCC(N)=O)NC(=O)[C@@H](NC(=O)[C@@H](NC(=O)[C@H](CCCNC(=N)N)NC(=O)[C@H](CCCCN)NC(=O)[C@H](Cc1ccccc1)NC(=O)CN)[C@@H](C)CC)C(C)C)C(=O)N[C@@H](CCCCN)C(=O)N[C@@H](CC(=O)O)C(=O)N[C@@H](Cc1ccccc1)C(=O)N[C@@H](CC(C)C)C(=O)N[C@@H](CCCNC(=N)N)C(=O)N[C@@H](CC(N)=O)C(=O)N[C@@H](CC(C)C)C(=O)N[C@H](C(=O)O)C(C)C (H-GFKRIVQRIKDFLRNLV-OH)
1.56 µM: MIC (Staphylococcus aureus [10]) | MIC (Staphylococcus aureus [11]) | MIC (Staphylococcus aureus [12]) | MIC (Staphylococcus aureus [13]) | MIC (Staphylococcus aureus [17])
120 µM: HC50 at 1 h [5]
inactive: Activity (Staphylococcus aureus [15])
active: Activity (Staphylococcus aureus [1]) | Activity (Staphylococcus aureus [2]) | Activity (Staphylococcus aureus [3]) | Activity (Staphylococcus aureus [6]) | inhibition (Staphylococcus aureus [7]) | Activity (Staphylococcus aureus [8]) | Activity (Staphylococcus aureus [9]) | Activity (Staphylococcus aureus [14]) | inhibition (Staphylococcus aureus [16]) | Activity (Staphylococcus aureus [18])
3.1 µM: MIC (Staphylococcus aureus [4])
Non-toxic: Activity (HaCaT)

CC(C)C[C@H](NC(=O)[C@H](Cc1ccc(-c2ccccc2)cc1)NC(=O)[C@H](CC(=O)O)NC(=O)[C@H](CCCCN)NC(=O)[C@H](CC(C)C)NC(=O)[C@H](CCCNC(=N)N)NC(=O)[C@H](CCC(N)=O)NC(=O)[C@@H](NC(=O)[C@H](CC(C)C)NC(=O)[C@H](CCCNC(=N)N)NC(=O)[C@H](CCCCN)NC(=O)[C@H](Cc1ccc(-c2ccccc2)cc1)NC(=O)CN)C(C)C)C(=O)N[C@@H](CCCNC(=N)N)C(=O)N[C@@H](CC(N)=O)C(=O)N[C@@H](CC(C)C)C(=O)N[C@H](C(N)=O)C(C)C (H-G[Bip]KRLVQRLKD[Bip]LRNLV-NH2)
3.1 µM: MIC (Staphylococcus aureus [4]) | MIC (Staphylococcus aureus [10]) | MIC (Staphylococcus aureus [11]) | MIC (Staphylococcus aureus [12]) | MIC (Staphylococcus aureus [13]) | MIC (Staphylococcus aureus [17])
120 µM: HC50 at 1 h [5]
active: Activity (Staphylococcus aureus [1]) | Activity (Staphylococcus aureus [2]) | Activity (Staphylococcus aureus [3]) | Activity (Staphylococcus aureus [19]) | inhibition (Staphylococcus aureus [7]) | Activity (Staphylococcus aureus [20]) | inhibition (Staphylococcus aureus [21]) | Activity (Staphylococcus aureus [22]) | inhibition (Staphylococcus aureus [23]) | Activity (Staphylococcus aureus [24]) | Activity (Staphylococcus aureus [25]) | Activity (Staphylococcus aureus [26]) | Activity (Staphylococcus aureus [27]) | inhibition (Staphylococcus aureus [16]) | inhibition (Staphylococcus aureus [28]) | Activity (Staphylococcus aureus [29]) | inhibition (Staphylococcus aureus [30]) | Activity (Staphylococcus aureus [31]) | Activity (Staphylococcus aureus [32])
Non-toxic: Activity (HaCaT)

CC[C@H](C)[C@H](NC(=O)[C@H](CCCNC(=N)N)NC(=O)[C@H](CCC(N)=O)NC(=O)[C@@H](NC(=O)[C@@H](NC(=O)[C@@H](N)CCCNC(=N)N)[C@@H](C)CC)C(C)C)C(=O)N[C@@H](CCCCN)C(=O)N[C@@H](CC(=O)O)C(=O)N[C@@H](Cc1ccccc1)C(=O)N[C@@H](CC(C)C)C(=O)O (H-RIVQRIKDFL-OH)
> 50 µM: MIC (Staphylococcus aureus [4]) | MIC (Staphylococcus aureus [10]) | MIC (Staphylococcus aureus [11]) | MIC (Staphylococcus aureus [12]) | MIC (Staphylococcus aureus [13]) | MIC (Staphylococcus aureus [17])
inactive: Activity (Staphylococcus aureus [6]) | Activity (Staphylococcus aureus [8]) | Activity (Staphylococcus aureus [9]) | Activity (Staphylococcus aureus [14]) | Activity (Staphylococcus aureus [15]) | inhibition (Staphylococcus aureus [16]) | Activity (Staphylococcus aureus [18])
active: inhibition (Staphylococcus aureus [7])

CC[C@H](C)[C@H](NC(=O)[C@H](CCCCN)NC(=O)[C@H](CCC(=O)O)NC(=O)[C@H](CCCCN)NC(=O)[C@H](CO)NC(=O)[C@H](CCCCN)NC(=O)[C@H](CCCNC(=N)N)NC(=O)[C@H](Cc1ccccc1)NC(=O)[C@H](Cc1ccccc1)NC(=O)[C@H](CC(=O)O)NC(=O)CNC(=O)[C@H](CC(C)C)NC(=O)[C@@H](N)CC(C)C)C(=O)NCC(=O)N[C@@H](CCCCN)C(=O)N[C@@H](CCC(=O)O)C(=O)N[C@@H](Cc1ccccc1)C(=O)N[C@@H](CCCCN)C(=O)N[C@@H](CCCNC(=N)N)C(=O)N[C@H](C(=O)N[C@H](C(=O)N[C@@H](CCC(N)=O)C(=O)N[C@@H](CCCNC(=N)N)C(=O)N[C@H](C(=O)N[C@@H](CCCCN)C(=O)N[C@@H](CC(=O)O)C(=O)N[C@@H](Cc1ccccc1)C(=O)N[C@@H](CC(C)C)C(=O)N[C@@H](CCCNC(=N)N)C(=O)N[C@@H](CC(N)=O)C(=O)N[C@@H](CC(C)C)C(=O)N[C@H](C(=O)N1CCC[C@H]1C(=O)N[C@@H](CCCNC(=N)N)C(=O)N[C@H](C(=O)N[C@@H](CCC(=O)O)C(=O)N[C@@H](CO)C(=O)O)[C@@H](C)O)C(C)C)[C@@H](C)CC)C(C)C)[C@@H](C)CC [CATHELICIDIN]
> 50 µM: MIC (Staphylococcus aureus [4]) | MIC (Staphylococcus aureus [10]) | MIC (Staphylococcus aureus [12]) | MIC (Staphylococcus aureus [17])
inactive: Activity (Staphylococcus aureus [6]) | Activity (Staphylococcus aureus [8]) | Activity (Staphylococcus aureus [9]) | inhibition (Staphylococcus aureus [33]) | inhibition (Staphylococcus aureus [34]) | Activity (Staphylococcus aureus [14]) | Activity (Staphylococcus aureus [15]) | Activity (Staphylococcus aureus [18])
12.5 µM: MIC (Staphylococcus aureus [13])
6.25 µM: MIC (Staphylococcus aureus [11])
50%: inhibition at 3.1 µM (Staphylococcus aureus [35])
